# Data published in patent US8445492B2, “Method for inhibiting growth of cancer cells and cell telomere and diseases of cell proliferation by using heteroannelated anthraquinone derivative compounds” (National Defense Medical Center, priority 2008, dated 2013).
# Legend:
# Type in all cases: cell-based
# Details in all cases: for GI50: read-out: GI50
# [1] = test system: HCT-116; test: NCI DTP in-vitro dose response, Colon Cancer
# [2] = test system: KM12; test: NCI DTP in-vitro dose response, Colon Cancer
# [3] = test system: COLO 205; test: NCI DTP in-vitro dose response, Colon Cancer
# [4] = test system: SW-620; test: NCI DTP in-vitro dose response, Colon Cancer
# [5] = test system: HCT-15; test: NCI DTP in-vitro dose response, Colon Cancer
# [6] = test system: HT29; test: NCI DTP in-vitro dose response, Colon Cancer
# [7] = test system: HCC-2998; test: NCI DTP in-vitro dose response, Colon Cancer
# [8] = test system: SNB-19; test: NCI DTP in-vitro dose response, CNS Cancer
# [9] = test system: SF-295; test: NCI DTP in-vitro dose response, CNS Cancer
# [10] = test system: SF-268; test: NCI DTP in-vitro dose response, CNS Cancer
# [11] = test system: SNB-75; test: NCI DTP in-vitro dose response, CNS Cancer
# [12] = test system: SF-539; test: NCI DTP in-vitro dose response, CNS Cancer
# [13] = test system: U251; test: NCI DTP in-vitro dose response, CNS Cancer
structure (smiles),measurement,setting,value
CCc1nc2ccc3c(c2[nH]1)C(=O)c1ccccc1C3=O [TABLE 4-3],CC50,[1],> 100 µM
same,TGI,[1],>1.00E−4
same,Percent Growth,[1]; Log10 Concentration −4.0,11%
same,Percent Growth,[1]; Log10 Concentration −5.0,42%
same,Percent Growth,[1]; Log10 Concentration −6.0,78%
same,Percent Growth,[1]; Log10 Concentration −7.0,95%
same,Percent Growth,[1]; Log10 Concentration −8.0,92%
same,GI50,[1],6.1 µM
same,CC50,[2],> 100 µM
same,TGI,[2],>1.00E−4
same,Percent Growth,[2]; Log10 Concentration −4.0,13%
same,Percent Growth,[2]; Log10 Concentration −5.0,43%
same,Percent Growth,[2]; Log10 Concentration −6.0,89%
same,Percent Growth,[2]; Log10 Concentration −7.0,94%
same,Percent Growth,[2]; Log10 Concentration −8.0,98%
same,GI50,[2],7.15 µM
same,CC50,[3],> 100 µM
same,TGI,[3],>1.00E−4
same,Percent Growth,[3]; Log10 Concentration −4.0,9%
same,Percent Growth,[3]; Log10 Concentration −5.0,41%
same,Percent Growth,[3]; Log10 Concentration −6.0,85%
same,Percent Growth,[3]; Log10 Concentration −7.0,93%
same,Percent Growth,[3]; Log10 Concentration −8.0,93%
same,GI50,[3],6.36 µM
same,CC50,[4],> 100 µM
same,TGI,[4],>1.00E−4
same,Percent Growth,[4]; Log10 Concentration −4.0,6%
same,Percent Growth,[4]; Log10 Concentration −5.0,39%
same,Percent Growth,[4]; Log10 Concentration −6.0,89%
same,Percent Growth,[4]; Log10 Concentration −7.0,96%
same,Percent Growth,[4]; Log10 Concentration −8.0,99%
same,GI50,[4],5.97 µM
same,CC50,[5],> 100 µM
same,TGI,[5],>1.00E−4
same,Percent Growth,[5]; Log10 Concentration −4.0,8%
same,Percent Growth,[5]; Log10 Concentration −5.0,27%
same,Percent Growth,[5]; Log10 Concentration −6.0,69%
same,Percent Growth,[5]; Log10 Concentration −7.0,93%
same,Percent Growth,[5]; Log10 Concentration −8.0,90%
same,GI50,[5],2.82 µM
same,CC50,[6],> 100 µM
same,TGI,[6],>1.00E−4
same,Percent Growth,[6]; Log10 Concentration −4.0,11%
same,Percent Growth,[6]; Log10 Concentration −5.0,48%
same,Percent Growth,[6]; Log10 Concentration −6.0,88%
same,Percent Growth,[6]; Log10 Concentration −7.0,100%
same,Percent Growth,[6]; Log10 Concentration −8.0,94%
same,GI50,[6],8.84 µM
same,CC50,[7],> 100 µM
same,TGI,[7],>1.00E−4
same,Percent Growth,[7]; Log10 Concentration −4.0,22%
same,Percent Growth,[7]; Log10 Concentration −5.0,59%
same,Percent Growth,[7]; Log10 Concentration −6.0,90%
same,Percent Growth,[7]; Log10 Concentration −7.0,94%
same,Percent Growth,[7]; Log10 Concentration −8.0,88%
same,GI50,[7],17.4 µM
CCc1nc2ccc3c(c2[nH]1)C(=O)c1ccccc1C3=O [TABLE 4-4],CC50,[8],> 100 µM
same,TGI,[8],>1.00E−4
same,Percent Growth,[8]; Log10 Concentration −4.0,39%
same,Percent Growth,[8]; Log10 Concentration −5.0,61%
same,Percent Growth,[8]; Log10 Concentration −6.0,92%
same,Percent Growth,[8]; Log10 Concentration −7.0,94%
same,Percent Growth,[8]; Log10 Concentration −8.0,84%
same,GI50,[8],30.9 µM
same,CC50,[9],> 100 µM
same,TGI,[9],>1.00E−4
same,Percent Growth,[9]; Log10 Concentration −4.0,9%
same,Percent Growth,[9]; Log10 Concentration −5.0,35%
same,Percent Growth,[9]; Log10 Concentration −6.0,69%
same,Percent Growth,[9]; Log10 Concentration −7.0,90%
same,Percent Growth,[9]; Log10 Concentration −8.0,88%
same,GI50,[9],3.65 µM
same,CC50,[10],> 100 µM
same,TGI,[10],>1.00E−4
same,Percent Growth,[10]; Log10 Concentration −4.0,28%
same,Percent Growth,[10]; Log10 Concentration −5.0,57%
same,Percent Growth,[10]; Log10 Concentration −6.0,88%
same,Percent Growth,[10]; Log10 Concentration −7.0,96%
same,Percent Growth,[10]; Log10 Concentration −8.0,87%
same,GI50,[10],17.7 µM
same,CC50,[11],> 100 µM
same,TGI,[11],>1.00E−4
same,Percent Growth,[11]; Log10 Concentration −4.0,17%
same,Percent Growth,[11]; Log10 Concentration −5.0,41%
same,Percent Growth,[11]; Log10 Concentration −6.0,49%
same,Percent Growth,[11]; Log10 Concentration −7.0,66%
same,Percent Growth,[11]; Log10 Concentration −8.0,66%
same,GI50,[11],0.872 µM
same,CC50,[12],> 100 µM
same,TGI,[12],>1.00E−4
same,Percent Growth,[12]; Log10 Concentration −4.0,13%
same,Percent Growth,[12]; Log10 Concentration −5.0,46%
same,Percent Growth,[12]; Log10 Concentration −6.0,80%
same,Percent Growth,[12]; Log10 Concentration −7.0,83%
same,Percent Growth,[12]; Log10 Concentration −8.0,81%
same,GI50,[12],7.46 µM
same,CC50,[13],> 100 µM
same,TGI,[13],>1.00E−4
same,Percent Growth,[13]; Log10 Concentration −4.0,27%
same,Percent Growth,[13]; Log10 Concentration −5.0,49%
same,Percent Growth,[13]; Log10 Concentration −6.0,84%
same,Percent Growth,[13]; Log10 Concentration −7.0,96%
same,Percent Growth,[13]; Log10 Concentration −8.0,94%
same,GI50,[13],9.58 µM
O=C1c2ccccc2C(=O)c2c1ccc1nccnc21 [TABLE 5-3],CC50,[1],> 100 µM
same,TGI,[1],>1.00E−4
same,Percent Growth,[1]; Log10 Concentration −4.0,3%
same,Percent Growth,[1]; Log10 Concentration −5.0,55%
same,Percent Growth,[1]; Log10 Concentration −6.0,91%
same,Percent Growth,[1]; Log10 Concentration −7.0,99%
same,Percent Growth,[1]; Log10 Concentration −8.0,96%
same,GI50,[1],12.3 µM
same,CC50,[2],> 100 µM
same,TGI,[2],4.95E−5
same,Percent Growth,[2]; Log10 Concentration −4.0,−18%
same,Percent Growth,[2]; Log10 Concentration −5.0,40%
same,Percent Growth,[2]; Log10 Concentration −6.0,76%
same,Percent Growth,[2]; Log10 Concentration −7.0,90%
same,Percent Growth,[2]; Log10 Concentration −8.0,89%
same,GI50,[2],5.26 µM
same,CC50,[3],> 100 µM
same,TGI,[3],2.84E−5
same,Percent Growth,[3]; Log10 Concentration −4.0,−35%
same,Percent Growth,[3]; Log10 Concentration −5.0,29%
same,Percent Growth,[3]; Log10 Concentration −6.0,74%
same,Percent Growth,[3]; Log10 Concentration −7.0,86%
same,Percent Growth,[3]; Log10 Concentration −8.0,92%
same,GI50,[3],3.4 µM
same,CC50,[4],> 100 µM
same,TGI,[4],3.08E−5
same,Percent Growth,[4]; Log10 Concentration −4.0,−26%
same,Percent Growth,[4]; Log10 Concentration −5.0,25%
same,Percent Growth,[4]; Log10 Concentration −6.0,58%
same,Percent Growth,[4]; Log10 Concentration −7.0,87%
same,Percent Growth,[4]; Log10 Concentration −8.0,94%
same,GI50,[4],1.71 µM
same,CC50,[5],> 100 µM
same,TGI,[5],8.43E−5
same,Percent Growth,[5]; Log10 Concentration −4.0,−3%
same,Percent Growth,[5]; Log10 Concentration −5.0,37%
same,Percent Growth,[5]; Log10 Concentration −6.0,77%
same,Percent Growth,[5]; Log10 Concentration −7.0,84%
same,Percent Growth,[5]; Log10 Concentration −8.0,88%
same,GI50,[5],4.63 µM
same,CC50,[6],> 100 µM
same,TGI,[6],>1.00E−4
same,Percent Growth,[6]; Log10 Concentration −4.0,1%
same,Percent Growth,[6]; Log10 Concentration −5.0,46%
same,Percent Growth,[6]; Log10 Concentration −6.0,74%
same,Percent Growth,[6]; Log10 Concentration −7.0,95%
same,Percent Growth,[6]; Log10 Concentration −8.0,99%
same,GI50,[6],7.01 µM
same,CC50,[7],> 100 µM
same,TGI,[7],8.35E−5
same,Percent Growth,[7]; Log10 Concentration −4.0,−3%
same,Percent Growth,[7]; Log10 Concentration −5.0,40%
same,Percent Growth,[7]; Log10 Concentration −6.0,52%
same,Percent Growth,[7]; Log10 Concentration −7.0,94%
same,Percent Growth,[7]; Log10 Concentration −8.0,97%
same,GI50,[7],1.4 µM
O=C1c2ccccc2C(=O)c2c1ccc1nccnc21 [TABLE 5-4],CC50,[8],> 100 µM
same,TGI,[8],>1.00E−4
same,Percent Growth,[8]; Log10 Concentration −4.0,4%
same,Percent Growth,[8]; Log10 Concentration −5.0,57%
same,Percent Growth,[8]; Log10 Concentration −6.0,90%
same,Percent Growth,[8]; Log10 Concentration −7.0,93%
same,Percent Growth,[8]; Log10 Concentration −8.0,94%
same,GI50,[8],13.4 µM
same,CC50,[9],> 100 µM
same,TGI,[9],3.23E−5
same,Percent Growth,[9]; Log10 Concentration −4.0,−24%
same,Percent Growth,[9]; Log10 Concentration −5.0,25%
same,Percent Growth,[9]; Log10 Concentration −6.0,95%
same,Percent Growth,[9]; Log10 Concentration −7.0,83%
same,Percent Growth,[9]; Log10 Concentration −8.0,90%
same,GI50,[9],4.35 µM
same,CC50,[10],> 100 µM
same,TGI,[10],>1.00E−4
same,Percent Growth,[10]; Log10 Concentration −4.0,1%
same,Percent Growth,[10]; Log10 Concentration −5.0,34%
same,Percent Growth,[10]; Log10 Concentration −6.0,86%
same,Percent Growth,[10]; Log10 Concentration −7.0,92%
same,Percent Growth,[10]; Log10 Concentration −8.0,96%
same,GI50,[10],4.98 µM
same,CC50,[11],> 100 µM
same,TGI,[11],>1.00E−4
same,Percent Growth,[11]; Log10 Concentration −4.0,11%
same,Percent Growth,[11]; Log10 Concentration −5.0,53%
same,Percent Growth,[11]; Log10 Concentration −6.0,76%
same,Percent Growth,[11]; Log10 Concentration −7.0,87%
same,Percent Growth,[11]; Log10 Concentration −8.0,83%
same,GI50,[11],11.9 µM
same,CC50,[12],> 100 µM
same,TGI,[12],5.37E−5
same,Percent Growth,[12]; Log10 Concentration −4.0,−9%
same,Percent Growth,[12]; Log10 Concentration −5.0,23%
same,Percent Growth,[12]; Log10 Concentration −6.0,64%
same,Percent Growth,[12]; Log10 Concentration −7.0,88%
same,Percent Growth,[12]; Log10 Concentration −8.0,90%
same,GI50,[12],2.18 µM
same,CC50,[13],> 100 µM
same,TGI,[13],4.29E−5
same,Percent Growth,[13]; Log10 Concentration −4.0,−21%
same,Percent Growth,[13]; Log10 Concentration −5.0,35%
same,Percent Growth,[13]; Log10 Concentration −6.0,89%
same,Percent Growth,[13]; Log10 Concentration −7.0,93%
same,Percent Growth,[13]; Log10 Concentration −8.0,96%
same,GI50,[13],5.38 µM
